Measurements published in patent US6869935B2, “Gene Therapy for proliferative vitreoretinopathy” (priority 1996, dated 2005).
Values after ≈ are worked out from the molar mass of the structure shown.

Key:
[1] = system: experimental proliferative vitreoretinopathy (HSV-tk positive/negative RDFs); experiment: In vivo bystander effect in experimental proliferative vitreoretinopathy; parameters: species or system pigmented rabbits
Protocol: The right eye was used from each of 20 pigmented rabbits of both sexes, weighing 2.5 to 3.5 kg each. Vitrectomy was performed in the same manner as described above. One week after vitrectomy, group D (n=7) received an injection into the vitreous cavity of a mixture of 0.25×10^4 homologous HSV-tk positive RDFs (5% of total cells) and 4.75×10^4 homologous HSV-tk negative RDFs (95% of total cells). Group E (n=7) received a mixture of 0.05×10^4 homologous HSV-tk positive RDFs […] HSV-tk negative RDFs (95% of total cells). Group F (n=6) received 5.0×10^4 homologous HSV-tk negative RDFs as a control. All eyes received 200 μg of ganciclovir (0.1 ml of solution dissolved in distilled water) just after the cell injection and on day 4. Indirect ophthalmoscopic examinations were performed in a masked fashion on days 4, 7, 14 and 28. Clinical severity of PVR was graded from 0 to 5 as described above.

[2] = system: mixtures of HSV-tk-positive and -negative RDFs; experiment: In vitro bystander effect, cocultures of HSV-tk positive and negative cells; assay type: cell-based, rabbit; details: 1 μg/ml ganciclovir; 3 days of incubation; effect depended on percentage of HSV-tk positive cells
Protocol: To determine the cytotoxic effect of a small number of HSV-tk positive cells on neighboring HSV-tk-negative cells, cocultures of HSV-tk positive cells and HSV-tk-negative cells were performed by mixing these two cells in varying proportions. Briefly, mixtures of HSV-tk-positive and -negative RDFs (2.0×10^4 cells/well) were seeded at various mixing ratios (0, 1.0, 2.5, 5.0, 10, and 100% HSV-tk-positive cells of total cells) in 24-well culture plates (Corning) and incubated at 37° C. in 5% CO2 overnight. Cells were then treated with 1 μg/ml ganciclovir for 3, 5, and 7 days. The number of cells was counted with a Coulter counter (Coulter Electronics, Inc., Hialeah, Fla.).

[3] = system: fibroblasts bearing the HSV-TK gene; details: rabbits; intraocular injection of fibroblasts bearing the HSV-TK gene; cited from earlier work
HSV-tk negative RDFs = experiment: In vitro sensitivity to ganciclovir (XTT assay), HSV-tk negative RDFs; assay type: cell-based, rabbit; details: concentration range 0.001-50 μg/ml
Protocol: (§1) The sensitivity of HSV-tk positive RDFs (100% HSV-tk transduced RDFs) and HSV-tk negative RDFs to ganciclovir was determined by using a tetrazolium-based calorimetric assay (XTT assay) (Scudiero et al., Cancer Research, Vol. 48, pgs. 4827-4833 (1988); Roehm et al., J. Immunol. Methods, Vol. 142, pgs. 257-265 (1991)). HSV-tk positive RDFs and HSV-tk negative RDFs were seeded at a density of 5×10^3 cells/well of 96-well culture plates (Corning) and incubated with DMEM-10 at 37° C. in 5% CO2 overnight. Then cells were treated with DMEM-10 containing various concentrations of ganciclovir (GCV; Cytovene; Syntex Inc., Palo Alto, Calif.) or only DMEM-10. After a total of 72 hr incubation, XTT assay was performed using a kit (cell proliferation II; Boehringer Mannheim, Indianapolis, Ind.). The results were read on a microplate reader (MR700; Dynatech Laboratories, Inc., Chantilly, Va.).

HSV-tk positive RDFs = experiment: In vitro sensitivity to ganciclovir (XTT assay), HSV-tk positive RDFs; assay type: cell-based, rabbit; details: Oryctolagus cuniculus, 72 hr of incubation, read-out: IC50 (concentration required for 50% cytotoxicity)
Protocol: as §1

Nc1nc(O)c2ncn(COC(CO)CO)c2n1 [ganciclovir]
Retinal detachment (stages 3-5) ([1]; group D (5% HSV-tk positive RDFs), 200 μg ganciclovir intravitreal after cell injection and day 4, day 4 and day 7): no retinal detachment | Retinal detachment (stages 3-5) ([1]; group D (5% HSV-tk positive RDFs), 200 μg ganciclovir, day 14 and day 28): No eyes showed retinal detachment | Retinal detachment (stages 3-5) ([1]; group E (1% HSV-tk positive RDFs), 200 μg ganciclovir, day 4 and day 7): no retinal detachment | Eyes with retinal detachment (stages 3-5) ([1]; group E (1% HSV-tk positive RDFs), 200 μg ganciclovir, day 14 and day 28): 14.3% | Eyes with retinal detachment (stages 3-5) ([1]; group F (100% HSV-tk negative RDFs), 200 μg ganciclovir, day 4): 16.7% | Eyes with retinal detachment (stages 3-5) ([1]; group F (100% HSV-tk negative RDFs), 200 μg ganciclovir, day 7): 50% | Eyes with retinal detachment (stages 3-5) ([1]; group F (100% HSV-tk negative RDFs), 200 μg ganciclovir, day 14 and day 28): 66.7% | Proliferation of co-culturing cells [2]: inhibited proliferation of co-culturing cells | Experimental PVR [3]: inhibited | Toxicity to HSV-tk negative RDFs (HSV-tk negative RDFs): no significant toxicity | IC50 (HSV-tk positive RDFs): 0.1 µg/mL (≈ 0.392 µM)
